Assay results from article PMC11806944 (Analytical methods : advancing methods and applications, 2025).

Assays:
[1] = Sorption control wells: abiotic losses to polystyrene 96-well microplate; format: physicochemical
zebrafish embryos [2] = conditions: Tropical 5D wild-type, in vivo, 35 μM; for Chemical uptake amount as share of the total chemical amount added: 5 day
zebrafish embryos [3] = conditions: ~120 hpf; for Incidence of any effect in embryonic zebrafish: 35 μM exposure with daily UV fluorescence measurement
embryonic zebrafish = conditions: cited from earlier work
[4] = estimated; cited from earlier work
[5] = ref Hazard Substances Data Bank (HSDB); cited from earlier work

SMILES	Actual equilibrium media concentration ([1]; control wells, reached after 1 day, ~35 μM nominal)	Total uptake mass per zebrafish embryo, corrected for abiotic losses (zebrafish embryos [2]) [nmol]	Chemical uptake amount as share of the total chemical amount added (zebrafish embryos [2])	Incidence of any effect in embryonic zebrafish (zebrafish embryos [3]) [%]	Endpoints observed shared by both chemicals (zebrafish embryos [3]; 35 μM exposure)	Lowest observed adverse effect level (LOAEL) (embryonic zebrafish) [µM]	log Kow [4]	Henry's coefficient [5]	Decrease in sorption rate when plates were removed from the shaker table ([1]; t ≤ 1 day vs t ≥ 1 day) [factor]	Further endpoints observed (zebrafish embryos [3]; 35 μM exposure)
Oc1ccc2ccccc2c1 [2-hydroxynaphthalene]	approximately 31.5 μM	2.09 ± 0.89	approximately 50%	97	mortality, yolk sac and pericardial edema, and pectoral fin malformation	35	2.7	2.7 × 10^−8 atm m^3 mol^−1	–	–
c1ccc2nc3ccccc3cc2c1 [acridine, Acridine]	–	0.67 ± 0.26	~21%	100	mortality, yolk sac and pericardial edema, and pectoral fin malformation	35	3.4	4 × 10^−7 atm m^3 mol^−1	2	Axis and cranial deformities
